Results from patent US7687465B2, “Therapeutic cancer vaccine” (Kraeftens Bekaempelse, priority 2003, dated 2010).

Test system: peripheral blood T cells or TIL from melanoma patients
Experiment: ELISPOT IFN-γ secretion assay, T-cell responses against HLA-A2 binding ML-IAP peptides
Type: cell-based, human
Method: Peripheral blood was obtained from melanoma patients before vaccination and subsequent to a series of vaccinations. In order to identify peptide-specific T-cell precursors, peripheral blood lymphocytes (PBL) were used directly in the ELISPOT (designated direct ELISPOT). However, to extend the sensitivity of the ELISPOT assay, PBL were stimulated once in vitro prior to analysis^17,18. At day 0, PBL or crushed lymph nodes were thawed and plated in 2 ml/well at a concentration of 2×10^6 cells in 24-well plates (Nunc, Denmark) in X-vivo medium (Bio Whittaker, Walkersville, Md.), 5% heat-inactivated human serum, and 2 mM of L-glutamine in the presence of 10 μM of peptide. Two days later 20 IU/ml recombinant interleukin-2 (IL-2) (Chiron, Ratingen, Germany) was added to the cultures. The cultured cells were tested for reactivity in the ELISPOT on day 8.
The ELISPOT assay used to quantify peptide epitope specific interferon-7 releasing effector cells was adapted from Lalvani et al.^37, and Scheibenbogen et al.^38. Briefly, nitrocellulose bottomed 96-well plates (MultiScreen MAIP N45, Millipore) were coated overnight at 4° C. with 7.5 μg/ml of anti-IFN-γ antibody (1-D1K, Mabtech, Sweden) in 75 μl sterile PBS. Subsequently, the wells were washed six times with PBS, and non-specific binding were blocked by X-vivo medium for 2 hours at 37° C. Freshly isolated PBL or cells, which had been stimulated once in vitro, were added in duplicates at different cell concentrations (from 10^6 to 10^5 cells per well for non-stimulated PBL, and from 3×10^5-3×10^4 cells per well for PBL which had been stimulated once in vitro), in 100 μl X-vivo medium. Peptides were then added to each well to a final concentration of 2 μM and incubated overnight at 37° C.
The following day, media was discarded and the wells were washed (six times) with PBS containing 0.05% Tween (PBS/Tw) before the addition of biotinylated secondary antibody (7-B6-1-Biotin, Mabtech) at 0.5 μg/ml in 75 μl PBS containing 1% BSA and 0.02% NaN3 (PBS/BSA). The plates were incubated at room temperature for 2 hours. The wells were washed (six times) with PBS/Tw. Then 75 μl of Avidin-enzyme conjugate (AP-Avidin, Calbiochem) diluted 1:2000 in PBS/BSA were added to each well and incubated for 1 hour. The enzyme substrate NBT/BCIP was prepared freshly according to the manufacturers' instructions (Gibco, code 18280-016) and 75 μl were added to each well and incubated for 5-10 min. The reaction was terminated by washing with tap-water upon the emergence of dark purple spots. The spots were then counted using the AlphaImager System (Alpha Innotech, San Leandro, Calif., USA) and the peptide specific CTL frequency could be calculated as the number of spot-forming cells.
To extend the sensitivity of the ELISPOT assay, PBL were stimulated once in vitro prior to analysis^17,18. At day 0, PBL or crushed lymph nodes were thawed and plated in 2 ml/well at a concentration of 2×10^6 cells in 24-well plates (Nunc, Denmark) in X-vivo medium (Bio Whittaker, Walkersville, Md.), 5% heat-inactivated human serum, and 2 mM of L-glutamine in the presence of 10 μM of peptide. Two days later 20 IU/ml recombinant interleukin-2 (IL-2) (Chiron, Ratingen, Germany) was added to the cultures. The cultured cells were tested for reactivity in the ELISPOT on day 12.
The ELISPOT assay used to quantify peptide epitope-specific interferon-γ-releasing effector cells was performed as described previously^19. Briefly, nitrocellulose bottomed 96-well plates (MultiScreen MAIP N45, Millipore, Hedehusene, Denmark) were coated with anti-IFN-7 antibody (1-D1K, Mabtech, Nacka, Sweden). The wells were washed, blocked by X-vivo medium, and cells were added in duplicates at different cell concentrations. Peptides were then added to each well and the plates were incubated overnight. The following day, media was discarded and the wells were washed prior to addition of biotinylated secondary antibody (7-B6-1-Biotin, Mabtech). […]

CC(C)C[C@H](NC(=O)[C@@H](N)CCCNC(=N)N)C(=O)N[C@@H](CCC(N)=O)C(=O)N[C@@H](CCC(=O)O)C(=O)N[C@@H](CCC(=O)O)C(=O)N[C@@H](CCCNC(=N)N)C(=O)N[C@H](C(=O)N[C@@H](CS)C(=O)N[C@@H](CCCCN)C(=O)N[C@H](C(=O)O)C(C)C)[C@@H](C)O [ML-IAP245]
strength of spontaneous CTL response (TIL and PBL from melanoma patients, in words): Weaker spontaneous responses
TIL samples in which a response against the peptide was detected (TIL from melanoma patients (n=22), stimulated once in vitro with peptide, number of samples): five
PBL samples in which a response against the peptide was detected (peripheral blood T cells from melanoma patients (n=7), stimulated once in vitro with peptide, number of samples): one
